Test results reported in PMC5493393 (Journal of medicinal chemistry, 2017).

Columns and labels:
KOR [1] = target: T1, KOR (Homo sapiens, UniProt P41145); assay: KOR-arrestin translocation; type: cell-based; conditions: for agonist activity in β-arrestin recruitment: agonist mode, normalized to Sal A
KOR [2] = target: T1, KOR; type: binding; conditions: for LE (Ligand Efficiency): LE = 1.4(−logKi)/N
DOR = DOR (Homo sapiens, UniProt P41143); assay: Gi-mediated inhibition of cAMP production at DOR; type: cell-based; conditions: relative to KOR agonist activity; Figure S1
MOR = MOR (Homo sapiens, UniProt P35372); assay: Gi-mediated inhibition of cAMP production at MOR; type: cell-based; conditions: relative to KOR agonist activity; Figure S1
KOR M142A mutant = assay: 3H-U69593 binding at KOR single point mutant M142A; conditions: vs wild type KOR
KOR H291A mutant = assay: 3H-U69593 binding at KOR single point mutant H291A; conditions: vs wild type KOR
KOR I294A mutant = assay: 3H-U69593 binding at KOR single point mutant I294A; conditions: vs wild type KOR
KOR [3] = target: T1, KOR; assay: Gi-mediated inhibition of cAMP production; type: cell-based
[4] = inhibition of Sal A mediated Gi activation

Structure (SMILES)	effect of M142A mutation on ligand binding (fold reduction of binding vs WT KOR) (KOR M142A mutant)	LE (Ligand Efficiency) (KOR [2]; Table 2 derivatives) [kcal/mol per heavy atom]	effect of H291A mutation on ligand affinity (fold reduction vs WT KOR) (KOR H291A mutant)	effect of I294A mutation on ligand affinity (fold reduction vs WT KOR) (KOR I294A mutant)	further results
CC(c1cccc(O)c1)N(C)Cc1nccn1CC(F)(F)F (stereo not drawn) [Compound 28]					agonist activity in β-arrestin recruitment (KOR [1]): measurable β-arrestin recruitment activity; %Inhib ± SEM (inhibition of 3H-U69593 radioligand binding) (KOR [2]; Table 1 VLS hits, 50 μM compound, SEM, N=3): 96.9 ± 1.2%; reduction of agonist activity at DOR (DOR): at least 50%; reduction of agonist activity at MOR (MOR): at least 50%
Cc1ccc(C(CNC(=O)c2oc3ccc(F)cc3c2C)N2CCCC2)o1 (stereo not drawn) [Compound 70]	enhancing binding	0.32			
Cc1c(C(=O)NCC(c2ccco2)N2CCCC2)oc2ccc(Cl)cc12 (stereo not drawn) [Compound 72]	enhancing binding				
CC(NCc1nccn1C)c1cccc(O)c1 (stereo not drawn) [Compound 81]					agonist activity in β-arrestin recruitment (KOR [1]): minimal β-arrestin recruitment; %Inhib (inhibition of 3H-U69593 radioligand binding) (KOR [2]; Table 2 derivatives, 50 μM compound, N=3): 78.81%; reduction of agonist activity at DOR (DOR): ≥ 70%; reduction of agonist activity at MOR (MOR): ≥ 70%
Cc1ccc(C(CNC(=O)c2oc3ccccc3c2C)N2CCCC2)o1 (stereo not drawn) [Compound 69]	enhancing binding				
O=C(NC[C@@H](c1ccco1)N1CCCC1)c1cc2ccccc2o1 [Compound 71]		0.35			
CCN(Cc1csc(C)n1)C(C)c1cccc(O)c1 (stereo not drawn) [Compound 87]			more than 10 fold	more than 10 fold	
COc1ccc2oc(C(=O)NCC(c3ccco3)N3CCCC3)c(C)c2c1 (stereo not drawn) [Compound 73]		0.32			
COC(=O)[C@@H]1C[C@H](OC(C)=O)C(=O)[C@H]2[C@@]1(C)CC[C@H]1C(=O)O[C@H](c3ccoc3)C[C@]21C [Sal A, salvinorin A, reference compound]	at least 10 fold		not affecting binding	not affecting binding	
COc1ccc(CNCC(O)c2cccc(O)c2)cc1Br (stereo not drawn) [Compound 67]	at least 10 fold		more than 10 fold	more than 10 fold	
Oc1cccc(C(O)CNCc2ccc(Cl)cc2Cl)c1 (stereo not drawn) [Compound 64]	at least 10 fold	0.47	more than 10 fold	more than 10 fold	antagonist activity: inhibition of Sal A-induced β-arrestin recruitment (KOR [1]; antagonist mode, 30 nM Sal A, normalized to 5-GNTI): completely inhibiting; functional profile, arrestin versus G-protein assays (KOR [3]; comparison of β-arrestin (Tango) and Gi-cAMP assays): balanced antagonist; Schild slope (KOR [3]; [4]): 1.15 ± 0.06; pA2 (Schild analysis) (KOR [3]; [4]): 6.78 ± 0.11
